Holding throughout (format): cell-based, Clostridium difficile
Experiment [1] concerns C. difficile VPI10463 ATCC 43255. Description: MIC broth microdilution, C. difficile VPI 10463. Conditions: VPI 10463, MtzS, 24 h, median of at least n = 4; for MIC: Clostridioides difficile, ATCC 43255 / ATCC BAA-1803. As to the method: (§1) All compounds were tested for activity against a set of anaerobic C. difficile bacteria (630 ATCC BAA-1382, NAP1/027 M7404, NAP1/027 ATCC BAA-1803, VPI10463 ATCC 43255, CD26A54_S and CD26A54_R) and representative ESKAPE pathogens S. aureus (MRSA ATCC 43300), E. coli (ATCC 25922), K. pneumoniae (ATCC 700603), A. baumannii (ATCC 19606) and P. aeruginosa (ATCC 27853) using a standard broth microdilution assay. Selected compounds were tested for activity against H. pylori strains (26695, and clinical isolates MtzS 13/25, MtzR 98/285 and MtzR 13/61) using agar plate dilution, and for antimicrobial activity against […] Gram-positive bacterial strains: Enterococcus faecalis (VanA clinical isolate), Enterococcus faecium (MDR VanA ATCC 51559), Streptococcus pneumoniae (MDR ATCC 700677), S. aureus (MRSA ATCC 43300, MRSA clinical isolate, MRSA/DRSA clinical isolate, GISA NARSA NRS 1, GISA NARSA NRS 17, VRSA NARSA VRS1, VRSA NARSA VRS4 and VRSA NARSA VRS10) using broth microdilution. C. difficile strains were grown at 37 °C in a COY anaerobic chamber (5% H2, 10% CO2, 85% N2). H. pylori strains were grown at 37 °C under a microaerobic atmosphere (5% O2, 10% CO2). All facultative anaerobic bacteria were grown at 37 °C with normal atmospheric oxygen levels. All experiments were performed in duplicate with metronidazole, vancomycin, linezolid or colistin as positive controls for relevant strains (see Table 1). Positive growth control of bacteria and DMSO as well as a negative control of only media were included for every plate. Full assay details are provided in the supplementary information.
(§2) C. difficile ATCC BAA-1382, ATCC BAA-1803, ATCC 43255 and M7404 heat shocked spore stocks (10 µL) were transferred into the anaerobic chamber and 10 µL streaked onto pre-reduced (at least 2.5 hr in anaerobic chamber) BHIS agar plates supplemented with 0.1% w/v sodium taurocholate (BHIS(TA)). Plates were incubated for 24 hours prior to assay to give colonies of size 1-3mm diameter with characteristic uneven borders.
(§3) The minimum inhibition concentration was determined according to the CLSI Methods with modifications in broth and inoculum for C. difficile according to Babakhani et al.^7,8 Briefly, compounds were prepared to 20X final concentration in 100% water, 60% DMSO and 40% water or 60% DMSO and 40% media. The compounds along with standard antibiotics were serially diluted two-fold across the wells of 96-well non-binding surface plates (Non binding surface, Corning). The plates were placed in the anaerobic chamber overnight to reduce. C. difficile bacteria from BHIS(TA) agar plates were cultured anaerobically in BHIS at 37 °C overnight. A sample of culture was then diluted 40-fold in BHIS broth and incubated at 37 °C for approximately 4.5 hrs. The resultant mid-log phase culture (OD600= 0.5-0.6) was diluted to the final concentration of ~1×10^6 CFU/mL, then 50 µL was added to each well of the compound-containing 96-well plates. This gave final cell concentration of 5×10^5 CFU/mL, final volume 100 µL and 3% maximum DMSO concentration. Compound concentration was typically from 64 to 0.03 µg/mL. An antibiotic standard was included on each 96 well plate as well as a positive growth control (no compound) and sterility control (no bacteria). All the plates were covered and incubated at 37 °C for 24 h. MICs were the lowest concentration showing no visible growth.

Experiment [2] concerns C. difficile NAP1/027 ATCC BAA-1803. Description: MIC broth microdilution, C. difficile NAP1/027 ATCC BAA-1803. Conditions: for MIC: Clostridioides difficile. As to the method: as §1, §2
as §3, with “All the plates were covered and incubated at 37 °C for 24 h.” left out
On the technique in general: Broth dilution looks for growth in wells or tubes with falling amounts of substance.

The subject of experiment [3] is C. difficile NAP1/027 M7404. As to the kind of experiment: MIC broth microdilution, C. difficile NAP1/027 M7404. The following applies: NAP1/027 (footnote d: M7404), MtzS, 24 h, median of at least n = 4; for MIC: Clostridioides difficile, NAP1/027M7404. As for the experimental part: as §1, §2, §3
[4] abbreviates: ATCC 43255 / ATCC BAA-1803, NAP1/027 (footnote c: ATCC 43255), MtzS, 24 h, median of at least n = 4, read-out: MIC C. difficile NAP1/027 (footnote c).
The mark [5] stands for this setting: ATCCBAA1803, 24 hr incubation, read-out: MIC C. difficile NAP1/027 ATCC BAA-1803 24 hr.
Where [6] appears, read: ATCCBAA1803, 48 hr incubation, read-out: MIC C. difficile NAP1/027 ATCC BAA-1803 48 hr.

≈ marks a conversion by molar mass, not a printed value. Where two headings read alike, the source gives them in different places.

Regarding `Cc1ncc([N+](=O)[O-])n1CCn1cc(-c2ccc(Cl)c(Cl)c2)nn1` [Compound 4d, 1-(2-(2-methyl-5-nitro-1H-imidazol-1-yl)ethyl)-4-(3,4-dichlorophenyl)-1H-1,2,3-triazole], the MIC in experiment [1] is 0.5 to 1 µg/mL (≈ 1.36 to 2.72 µM); in experiment [2] (setting [4]), 1 µg/mL (≈ 2.72 µM); in experiment [2] (setting [5]), 1 µg/mL (≈ 2.72 µM); in experiment [2] (setting [6]), 0.5 to 8 µg/mL (≈ 1.36 to 21.8 µM); in experiment [3] it was 1 µg/mL (≈ 2.72 µM).

With `Cc1ncc([N+](=O)[O-])n1CCn1cc(Cn2cccn2)nn1` [Compound 4g, 1-(2-(2-methyl-5-nitro-1H-imidazol-1-yl)ethyl)-4-((1H-pyrazol-1-yl)methyl)-1H-1,2,3-triazole], the MIC in experiment [1] was 1 µg/mL (≈ 3.31 µM); in experiment [2] (setting [4]) it was 1 µg/mL (≈ 3.31 µM); in experiment [2] (setting [5]) it was 1 µg/mL (≈ 3.31 µM); in experiment [2] (setting [6]) it was 1 to 2 µg/mL (≈ 3.31 to 6.62 µM); in experiment [3], 1 µg/mL (≈ 3.31 µM).

In the case of `Cc1ncc([N+](=O)[O-])n1CCn1cc(C(O)c2ccccc2)nn1` (stereo not shown) [Compound 4l, 1-(2-(2-methyl-5-nitro-1H-imidazol-1-yl)ethyl)-4-(1-phenyl-1-hydroxylmethyl)-1H-1,2,3-triazole], the MIC in experiment [1] is 0.5 µg/mL (≈ 1.52 µM); in experiment [2] (setting [4]), 1 µg/mL (≈ 3.05 µM); in experiment [2] (setting [5]), 0.5 to 1 µg/mL (≈ 1.52 to 3.05 µM); in experiment [2] (setting [6]) it was 1 µg/mL (≈ 3.05 µM); in experiment [3] it was 0.5 to 1 µg/mL (≈ 1.52 to 3.05 µM).

In the case of `Cc1ncc([N+](=O)[O-])n1CCn1cc(CN2CCS(=O)(=O)CC2)nn1` [Compound 4o, 1-(2-(2-methyl-5-nitro-1H-imidazol-1-yl)ethyl)-4-((1,1-dioxothiomorpholin-4-yl)methyl)-1H-1,2,3-triazole], the MIC in experiment [1], in experiment [2] (setting [4]), in experiment [2] (setting [5]), in experiment [2] (setting [6]) and in experiment [3] was above 64 µg/mL in each case.

Consider `Cc1ncc([N+](=O)[O-])n1CCN=[N+]=[N-]` [Compound 3, 1-(2-azidoethyl)-2-methyl-5-nitro-1H-imidazole], for which, in experiment [1], the “MIC C. difficile VPI 10463” value turned out to be 0.5 µg/mL (≈ 2.55 µM). The “MIC C. difficile NAP1/027 ATCC BAA-1803 24 hr” value in experiment [2] (24 hr incubation) is 0.5 µg/mL (≈ 2.55 µM). The “MIC C. difficile NAP1/027 ATCC BAA-1803 48 hr” value in experiment [2] (48 hr incubation) is 1 µg/mL (≈ 5.1 µM). In experiment [2] (NAP1/027 (footnote c: ATCC 43255), MtzS, 24 h, median of at least n = 4), the “MIC C. difficile NAP1/027 (footnote c)” value was 0.5 µg/mL (≈ 2.55 µM). In addition, the “MIC C. difficile NAP1/027 (footnote d)” value in experiment [3] stood at 0.5 µg/mL (≈ 2.55 µM).

For `COC(=O)c1cn(CCn2c([N+](=O)[O-])cnc2C)nn1` [Compound 4f, 1-(2-(2-methyl-5-nitro-1H-imidazol-1-yl)ethyl)-4-(methoxycarbonyl)-1H-1,2,3-triazole], the MIC in experiment [1], in experiment [2] (setting [4]), in experiment [2] (setting [5]), in experiment [2] (setting [6]) and in experiment [3] was 1 µg/mL (≈ 3.57 µM) throughout.

Turning to `Cc1ncc([N+](=O)[O-])n1CCn1cc(-c2ccsc2)nn1` [Compound 4n, 1-(2-(2-methyl-5-nitro-1H-imidazol-1-yl)ethyl)-4-(thiophen-3-yl)-1H-1,2,3-triazole], the MIC in experiment [1] is 0.25 to 0.5 µg/mL (≈ 0.821 to 1.64 µM); in experiment [2] (setting [4]) it was 0.5 µg/mL (≈ 1.64 µM); in experiment [2] (setting [5]) it was 0.5 µg/mL (≈ 1.64 µM); in experiment [2] (setting [6]) it was 0.5 µg/mL (≈ 1.64 µM); in experiment [3], 0.5 µg/mL (≈ 1.64 µM).

Turning to `Cc1ncc([N+](=O)[O-])n1CCn1cc(C(=O)O)nn1` [Compound 4s, 1-(2-(2-methyl-5-nitro-1H-imidazol-1-yl)ethyl)-4-(carboxy)-1H-1,2,3-triazole], the MIC in experiment [1], in experiment [2] (setting [4]), in experiment [2] (setting [5]), in experiment [2] (setting [6]) and in experiment [3] was 64 µg/mL (≈ 240 µM) in each case.

On to `Cc1ncc([N+](=O)[O-])n1CCn1cc(CO)nn1` [Compound 4q, 1-(2-(2-methyl-5-nitro-1H-imidazol-1-yl)ethyl)-4-(hydroxymethyl)-1H-1,2,3-triazole], for which the MIC in experiment [1] was 16 µg/mL (≈ 63.4 µM); in experiment [2] (setting [4]) it was 16 to 32 µg/mL (≈ 63.4 to 127 µM); in experiment [2] (setting [5]), 16 µg/mL (≈ 63.4 µM); in experiment [2] (setting [6]), 16 to 32 µg/mL (≈ 63.4 to 127 µM); in experiment [3], 16 µg/mL (≈ 63.4 µM).

With `Cc1ncc([N+](=O)[O-])n1CCn1cc(CN)nn1.O=C(O)C(F)(F)F` [Compound 4t, 1-(2-(2-methyl-5-nitro-1H-imidazol-1-yl)ethyl)-4-(aminomethyl)-1H-1,2,3-triazole trifluoroacetate salt], the MIC in experiment [1], in experiment [2] (setting [4]), in experiment [2] (setting [5]), in experiment [2] (setting [6]) and in experiment [3] was above 64 µg/mL in each case.

With `Cc1ncc([N+](=O)[O-])n1CCn1cc(-c2ncccn2)nn1` [Compound 4j, 1-(2-(2-methyl-5-nitro-1H-imidazol-1-yl)ethyl)-4-(2-pyrimidinyl)-1H-1,2,3-triazole], the MIC in experiment [1], in experiment [2] (setting [4]), in experiment [2] (setting [5]), in experiment [2] (setting [6]) and in experiment [3] was 2 µg/mL (≈ 6.66 µM) throughout.

For the compound `COc1ccc(-c2cn(CCn3c([N+](=O)[O-])cnc3C)nn2)cc1` [Compound 4b, 1-(2-(2-methyl-5-nitro-1H-imidazol-1-yl)ethyl)-4-(4-methoxyphenyl)-1H-1,2,3-triazole], the MIC in experiment [1] was 0.25 to 0.5 µg/mL (≈ 0.761 to 1.52 µM); in experiment [2] (setting [4]) it was 0.5 µg/mL (≈ 1.52 µM); in experiment [2] (setting [5]) it was 0.5 µg/mL (≈ 1.52 µM); in experiment [2] (setting [6]), 0.5 µg/mL (≈ 1.52 µM); in experiment [3] it was 0.5 µg/mL (≈ 1.52 µM).

With `Cc1ncc([N+](=O)[O-])n1CCO` [Compound 1, metronidazole], the MIC in experiment [1], in experiment [2] (setting [4]), in experiment [2] (setting [5]), in experiment [2] (setting [6]) and in experiment [3] was 0.5 µg/mL (≈ 2.92 µM) each time.

On to `Cc1ncc([N+](=O)[O-])n1CCn1cc(-c2cncnc2)nn1` [Compound 4i, 1-(2-(2-methyl-5-nitro-1H-imidazol-1-yl)ethyl)-4-(5-pyrimidinyl)-1H-1,2,3-triazole], for which the MIC is 1 µg/mL (≈ 3.33 µM) in experiment [1]; 0.5 to 1 µg/mL (≈ 1.67 to 3.33 µM) in experiment [2] (setting [4]); 1 µg/mL (≈ 3.33 µM) in experiment [2] (setting [5]); 1 µg/mL (≈ 3.33 µM) in experiment [2] (setting [6]); 1 µg/mL (≈ 3.33 µM) in experiment [3].

(Values after article PMC4550478, “Metronidazole-triazole conjugates: Activity against Clostridium difficile and parasites” (European Journal of Medicinal Chemistry, 2015).)
